Source: US7001907B2, “Peptide-containing α-ketoamide cysteine and serine protease inhibitors” (Cephaon, Inc., priority 1997, dated 2006)

Target: T1, Recombinant human calpain I (Homo sapiens, UniProt P07384)
T1 construct: made in house
T1 sequence (P07384 1-714): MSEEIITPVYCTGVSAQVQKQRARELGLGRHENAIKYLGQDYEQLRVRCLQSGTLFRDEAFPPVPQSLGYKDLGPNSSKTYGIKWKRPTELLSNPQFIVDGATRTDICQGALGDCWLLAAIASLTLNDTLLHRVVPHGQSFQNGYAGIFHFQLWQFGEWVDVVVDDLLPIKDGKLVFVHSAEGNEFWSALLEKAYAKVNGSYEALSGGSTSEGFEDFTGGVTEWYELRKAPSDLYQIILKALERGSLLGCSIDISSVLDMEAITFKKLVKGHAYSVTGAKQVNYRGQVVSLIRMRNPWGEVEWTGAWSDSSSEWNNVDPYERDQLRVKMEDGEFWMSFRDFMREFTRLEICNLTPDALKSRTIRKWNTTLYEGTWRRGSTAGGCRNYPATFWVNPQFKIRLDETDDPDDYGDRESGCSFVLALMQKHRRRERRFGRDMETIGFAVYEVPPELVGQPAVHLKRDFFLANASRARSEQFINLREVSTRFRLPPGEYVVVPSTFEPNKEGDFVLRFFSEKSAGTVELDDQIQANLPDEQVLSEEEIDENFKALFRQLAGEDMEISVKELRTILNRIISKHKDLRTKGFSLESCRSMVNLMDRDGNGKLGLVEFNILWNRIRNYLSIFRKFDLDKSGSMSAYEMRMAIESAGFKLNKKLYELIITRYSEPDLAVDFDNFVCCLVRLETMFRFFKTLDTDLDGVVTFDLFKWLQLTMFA
T1 sequence (P04632 1-268 partner): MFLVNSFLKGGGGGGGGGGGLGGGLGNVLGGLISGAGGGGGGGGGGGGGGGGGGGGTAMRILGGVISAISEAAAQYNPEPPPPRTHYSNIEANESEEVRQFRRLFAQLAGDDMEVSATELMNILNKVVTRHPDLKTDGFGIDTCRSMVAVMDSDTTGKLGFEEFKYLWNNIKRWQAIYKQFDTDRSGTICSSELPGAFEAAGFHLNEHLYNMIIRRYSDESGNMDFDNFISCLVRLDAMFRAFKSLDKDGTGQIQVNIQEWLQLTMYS
Assay: Inhibition of cysteine protease activity: calpain I, Succ-Leu-Tyr-MNA substrate hydrolysis
Type: biochemical
Conditions: Table 2, linear α-ketoamides
Description: To evaluate inhibitory activity, stock solutions (40 times concentrated) of each compound to be tested were prepared in 100% anhydrous DMSO and 5 μl of each inhibitor preparation were aliquoted into each of three wells of a 96-well plate. Recombinant human calpain I, prepared by the method of Meyer et al. (Biochem. J. 1996, 314: 511–519; incorporated herein by reference in its entirety), was diluted into assay buffer (i.e., 50 mM Tris, 50 mM NaCl, 1 mM EDTA, 1 mM EGTA, and 5 mM β-mercaptoethanol, pH 7.5, including 0.2 mM Succ-Leu-Tyr-MNA), and 175 μl was aliquoted into the same wells containing the independent inhibitor stocks as well as to positive control wells containing 5 μl DMSO, but no compound. To start the reaction, 20 μl of 50 mM CaCl2 in assay buffer was added to all wells of the plate, excepting three, which were used as background signal baseline controls. Substrate hydrolysis was monitored every 5 minutes for a total of 30 minutes. Substrate hydrolysis in the absence of inhibitor was linear for up to 15 minutes.
Inhibition of calpain I activity was calculated as the percent decrease in the rate of substrate hydrolysis in the presence of inhibitor relative to the rate in its absence. Comparison between the inhibited and control rates was made within the linear range for substrate hydrolysis. The IC50s of inhibitors (concentration yielding 50% inhibition) were determined from the percent decrease in rates of substrate hydrolysis in the presence of five to seven different concentrations of the test compound. The results were plotted as percent inhibition versus log inhibitor concentration, and the IC50 was calculated by fitting the data to the four-parameter logistic equation shown below using the program GraphPad Prism (GraphPad Software, Inc., San Diego, Calif.). y=d+[(a−d)/(1+(x/c)^b)]
The parameters a, b, c, and d are defined as follows: a is % inhibition in the absence of inhibitor, b is the slope, c is the IC50, and d is the % inhibition at an infinite concentration of inhibitor.

SMILES | IC50
CS(=O)(=O)N[C@H](COCc1ccccc1)C(=O)N[C@@H](Cc1ccccc1)C(=O)C(=O)NCCNS(=O)(=O)c1ccc(N)cc1 [Compound 22] | 42 nM
CS(=O)(=O)NCCNC(=O)C(=O)[C@H](Cc1ccccc1)NC(=O)[C@@H](COCc1ccccc1)NS(C)(=O)=O [Compound 35] | 91 nM

Same assay, conditions: Table 4, α-ketoamides

SMILES | IC50
CS(=O)(=O)N[C@H](COCc1ccccc1)C(=O)N[C@@H](Cc1ccccc1)C(=O)C(=O)NCCNS(=O)(=O)c1ccc(-c2cccc(CN3CCCCC3)c2)s1 [Compound 95] | 30 nM
CS(=O)(=O)NC(C(=O)NC(Cc1ccccc1)C(=O)C(=O)NCCNS(=O)(=O)c1ccc(-c2ccccn2)s1)c1ccccc1 (mixture of isomers) [Compound 68] | 21 nM
CS(=O)(=O)N[C@@H](COCc1ccccc1)C(=O)N[C@@H](Cc1ccccc1)C(=O)C(=O)NCCNS(=O)(=O)c1ccccc1 [Compound 116] | 100 nM
CS(=O)(=O)NC(C(=O)NC(Cc1ccccc1)C(=O)C(=O)NCCNS(=O)(=O)c1ccccc1)c1ccccc1 (mixture of isomers) [Compound 69] | 80 nM
CS(=O)(=O)NC(COCc1ccccc1)C(=O)NC(Cc1ccccc1)C(=O)C(=O)NCCNS(=O)(=O)c1ccc(-c2cccc(C#N)c2)s1 (mixture of isomers) [Compound 110] | 11 nM
CN(C)c1cccc2c(S(=O)(=O)NCCNC(=O)C(=O)[C@H](Cc3ccccc3)NC(=O)[C@@H](COCc3ccccc3)NS(C)(=O)=O)cccc12 [Compound 86] | 49 nM
CS(=O)(=O)N[C@H](COCc1ccccc1)C(=O)N[C@@H](Cc1ccccc1)C(=O)C(=O)NCCNS(=O)(=O)c1ccc(-c2cccc(CN3CCOCC3)c2)s1 [Compound 56] | 18 nM
CS(=O)(=O)N[C@H](COCc1ccccc1)C(=O)N[C@@H](Cc1ccccc1)C(=O)C(=O)NCCCS(=O)(=O)Nc1ccccc1 [Compound 62] | 18 nM
CS(=O)(=O)N[C@H](COCc1ccccc1)C(=O)N[C@@H](Cc1ccccc1)C(=O)C(=O)NCCNS(=O)(=O)c1ccc(-c2cccc(CN3CCC3)c2)s1 [Compound 106] | 44 nM
COCCN(CCOC)Cc1cccc(-c2ccc(S(=O)(=O)NCCNC(=O)C(=O)[C@H](Cc3ccccc3)NC(=O)[C@@H](COCc3ccccc3)NS(C)(=O)=O)s2)c1 [Compound 109] | 22 nM

Same assay, conditions: Table 5, achiral P2 mimetic α-ketoamides

SMILES | IC50
O=C(NCCNS(=O)(=O)c1ccc(-c2cccc(CN3CCOCC3)c2)s1)C(=O)[C@H](Cc1ccccc1)NC(=O)c1c(Cl)cccc1Cl [Compound 131] | 29 nM
Cc1cccc(C)c1C(=O)N[C@@H](Cc1ccccc1)C(=O)C(=O)NCCNS(=O)(=O)c1ccc(-c2ccccn2)s1 [Compound 127] | 178 nM
N#Cc1cccc(-c2ccc(S(=O)(=O)NCCNC(=O)C(=O)[C@H](Cc3ccccc3)NC(=O)CCC3CCCC3)s2)c1 [Compound 151] | 420 nM
